In patent US6972319B1, “Pituitary adenylate cyclase activating peptide (PACAP)receptor 3 (R3) agonists and their pharmacological methods of use” (priority 1999, dated 2005):
No end group written: not given here.

Biological target: T1, PACAP-R3 (Homo sapiens, UniProt P41587)
T1 sequence (P41587 24-438): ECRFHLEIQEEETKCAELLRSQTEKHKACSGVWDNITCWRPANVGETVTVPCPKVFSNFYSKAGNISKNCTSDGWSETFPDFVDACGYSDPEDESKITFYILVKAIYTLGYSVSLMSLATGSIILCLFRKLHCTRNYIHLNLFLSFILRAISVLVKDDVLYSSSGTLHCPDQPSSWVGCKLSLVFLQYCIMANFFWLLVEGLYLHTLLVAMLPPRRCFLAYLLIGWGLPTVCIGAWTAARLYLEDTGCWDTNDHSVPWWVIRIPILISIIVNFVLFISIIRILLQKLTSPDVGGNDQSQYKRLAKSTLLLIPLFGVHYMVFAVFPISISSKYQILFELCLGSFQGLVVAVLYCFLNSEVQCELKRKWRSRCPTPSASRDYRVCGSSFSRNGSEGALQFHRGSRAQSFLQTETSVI
Test: Cyclic AMP SPA on CHO cells expressing PACAP R3
Type: cell-based
Design: expressed in transfected cells; host or cells: CHO cells (Geneticin selection)
Details: for EC50: cAMP SPA, CHO cells transfected with PACAP-R3, concentration at which 50% of maximum PACAP27 activity is achieved, NA = no detectable activities, read-out: R3 EC50; for R3 Selectivity: ratio of EC50 at R2 versus EC50 at R3
Description: CHO cells expressing the PACAP R3 were plated in 96-well plates (Costar) at 8×10^4 cell/well and grown at 37 C. for 24 hours in α MEM+nucleosides+glutamine (Giobco BRL), 10% FBS, 100 μg/ml Pen/Strep, 0.3 mg/ml glutamine, 1 mM HEPES, 0.5 mg/ml Geneticin (Gibco BRL). The media was removed and the plates were washed with PBS. The cells were incubated with a peptide, in Hepes-PBS-BSA with 0.4 mg/mlSoybean Trypsin Inhibitor, 0.5 mg/ml Bacitracin, 100 uM IBMX, for 15 min at 37 C. Cyclic AMP in the cell extracts was quantitated using the cAMP SPA direct screening assay system (Amersham Pharmacia Biotech Inc, Piscataway, N.J.,). The peptides shown in Table 3 were assayed for cAMP activity.
EC50 is defined as the concentration of the polypeptide at which 50% of maximum PACAP27 activity is achieved. “NA” denotes no detectable activities. “R3 Selectivity” is derived from the ratio of EC50 at R2 versus EC50 at R3.

## CC[C@H](C)[C@H](NC(=O)CNC(=O)[C@H](CC(=O)O)NC(=O)[C@H](CO)NC(=O)[C@@H](N)Cc1c[nH]cn1)C(=O)N[C@@H](Cc1ccccc1)C(=O)N[C@H](C(=O)N[C@@H](CC(=O)O)C(=O)N[C@@H](CO)C(=O)N[C@@H](Cc1ccc(O)cc1)C(=O)N[C@@H](CO)C(=O)N[C@@H](CCCNC(=N)N)C(=O)N[C@@H](Cc1ccc(O)cc1)C(=O)N[C@@H](CCCNC(=N)N)C(=O)N[C@@H](CCCCN)C(=O)N[C@@H](CCC(N)=O)C(=O)N[C@@H](CC(C)C)C(=O)N[C@@H](C)C(=O)N[C@H](C(=O)N[C@@H](CCCCN)C(=O)N[C@@H](CCCCN)C(=O)N[C@@H](Cc1ccc(O)cc1)C(=O)N[C@@H](CC(C)C)C(=O)N[C@@H](C)C(=O)N[C@@H](C)C(=O)N[C@H](C(=O)N[C@@H](CCCCN)C(=O)N[C@@H](CCCCN)C(=O)O)C(C)C)C(C)C)[C@@H](C)O [Peptide R3P39]
  EC50: 0.5 nM

## CC[C@H](C)[C@H](NC(=O)CNC(=O)[C@H](CC(=O)O)NC(=O)[C@H](CO)NC(=O)[C@@H](N)Cc1c[nH]cn1)C(=O)N[C@@H](Cc1ccccc1)C(=O)N[C@H](C(=O)N[C@@H](CC(=O)O)C(=O)N[C@@H](CO)C(=O)N[C@@H](Cc1ccc(O)cc1)C(=O)N[C@@H](CO)C(=O)N[C@@H](CCCNC(=N)N)C(=O)N[C@@H](Cc1ccc(O)cc1)C(=O)N[C@@H](CCCNC(=N)N)C(=O)N[C@@H](CCCCN)C(=O)N[C@@H](CCC(N)=O)C(=O)N[C@@H](CCSC)C(=O)N[C@@H](CCCCN)C(=O)N[C@H](C(=O)N[C@@H](CCCCN)C(=O)N[C@@H](CCCCN)C(=O)N[C@@H](Cc1ccc(O)cc1)C(=O)N[C@@H](CC(C)C)C(=O)N[C@@H](C)C(=O)N[C@@H](C)C(=O)N[C@H](C(=O)N[C@@H](CC(C)C)C(N)=O)C(C)C)C(C)C)[C@@H](C)O [PAC18]
  EC50: 1.1 nM

## CC[C@H](C)[C@H](NC(=O)CNC(=O)[C@H](CC(=O)O)NC(=O)[C@H](CO)NC(=O)[C@@H](N)Cc1c[nH]cn1)C(=O)N[C@@H](Cc1ccccc1)C(=O)N[C@H](C(=O)N[C@@H](CC(=O)O)C(=O)N[C@@H](CO)C(=O)N[C@@H](Cc1ccc(O)cc1)C(=O)N[C@@H](CO)C(=O)N[C@@H](CCCNC(=N)N)C(=O)N[C@@H](Cc1ccc(O)cc1)C(=O)N[C@@H](CCCNC(=N)N)C(=O)N[C@@H](CCCCN)C(=O)N[C@@H](CCC(N)=O)C(=O)N[C@@H](CCSC)C(=O)N[C@@H](C)C(=O)N[C@H](C(=O)N[C@@H](CCCCN)C(=O)N[C@@H](CCCCN)C(=O)N[C@@H](Cc1ccc(O)cc1)C(=O)N[C@@H](CC(C)C)C(=O)N[C@@H](C)C(=O)N[C@@H](C)C(=O)N[C@H](C(=O)N[C@@H](CCCCN)C(=O)N[C@@H](CCCCN)C(=O)O)C(C)C)C(C)C)[C@@H](C)O [Peptide R3P40]
  EC50: 0.7 nM

## H-HSDAVFTDNYTRLRKQMAPKKYLNSIKNKR [Peptide R3P108]
  EC50: 300 nM
  R3 Selectivity: 3

## CSCC[C@H](NC(=O)[C@H](CCC(N)=O)NC(=O)[C@H](CCCCN)NC(=O)[C@H](CCCNC(=N)N)NC(=O)[C@H](Cc1ccc(O)cc1)NC(=O)[C@H](CCCNC(=N)N)NC(=O)[C@H](CO)NC(=O)[C@H](Cc1ccc(O)cc1)NC(=O)[C@H](CO)NC(=O)[C@H](CC(=O)O)NC(=O)[C@@H](NC(=O)[C@H](Cc1ccccc1)NC(=O)[C@H](CCCCN)NC(=O)CNC(=O)[C@H](CC(=O)O)NC(=O)[C@H](CO)NC(=O)[C@@H](N)Cc1c[nH]cn1)[C@@H](C)O)C(=O)N[C@@H](C)C(=O)N[C@H](C(=O)N[C@@H](CCCCN)C(=O)N[C@@H](CCCCN)C(=O)N[C@@H](Cc1ccc(O)cc1)C(=O)N[C@@H](CC(C)C)C(=O)N[C@@H](C)C(=O)N[C@@H](C)C(=O)N[C@H](C(=O)N[C@@H](CC(C)C)C(N)=O)C(C)C)C(C)C [PAC5]
  EC50: 0.7 nM

## CC[C@H](C)[C@H](NC(=O)[C@H](CC(=O)O)NC(=O)[C@H](CC(N)=O)NC(=O)[C@H](CC(C)C)NC(=O)[C@H](Cc1ccc(O)cc1)NC(=O)[C@H](CCCCN)NC(=O)[C@H](CCCCN)NC(=O)[C@H](C)NC(=O)[C@H](C)NC(=O)[C@H](CC(C)C)NC(=O)[C@H](CCC(N)=O)NC(=O)[C@H](CCCCN)NC(=O)[C@H](CCCNC(=N)N)NC(=O)[C@H](CC(C)C)NC(=O)[C@H](CCCNC(=N)N)NC(=O)[C@@H](NC(=O)[C@H](Cc1ccc(O)cc1)NC(=O)[C@H](CC(N)=O)NC(=O)[C@H](CC(=O)O)NC(=O)[C@@H](NC(=O)[C@H](Cc1ccccc1)NC(=O)[C@@H](NC(=O)[C@H](C)NC(=O)[C@H](CC(=O)O)NC(=O)[C@H](CO)NC(=O)[C@@H](N)Cc1c[nH]cn1)C(C)C)[C@@H](C)O)[C@@H](C)O)C(=O)N[C@@H](CCCCN)C(=O)N[C@@H](CCCCN)C(=O)NCC(=O)O [Peptide R3P32]
  EC50: 0.4 nM

## CC[C@H](C)[C@H](NC(=O)[C@H](CO)NC(=O)[C@H](CCC(N)=O)NC(=O)[C@H](CC(C)C)NC(=O)[C@H](Cc1ccc(O)cc1)NC(=O)[C@H](CCCCN)NC(=O)[C@H](CCCCN)NC(=O)[C@H](C)NC(=O)[C@H](C)NC(=O)[C@@H](NC(=O)[C@H](CCC(N)=O)NC(=O)[C@H](CCCCN)NC(=O)[C@H](CCCNC(=N)N)NC(=O)[C@H](CC(C)C)NC(=O)[C@H](CCCNC(=N)N)NC(=O)[C@@H](NC(=O)[C@H](Cc1ccc(O)cc1)NC(=O)[C@H](CC(N)=O)NC(=O)[C@H](CC(=O)O)NC(=O)[C@@H](NC(=O)[C@H](Cc1ccccc1)NC(=O)[C@@H](NC(=O)[C@H](C)NC(=O)[C@H](CC(=O)O)NC(=O)[C@H](CO)NC(=O)[C@@H](N)Cc1c[nH]cn1)C(C)C)[C@@H](C)O)[C@@H](C)O)C(C)C)C(=O)N[C@@H](CC(C)C)C(=O)N[C@@H](CCCCN)C(=O)N[C@@H](CCCCN)C(=O)N[C@@H](CCCNC(=N)N)C(=O)N[C@@H](Cc1ccc(O)cc1)C(=O)O [Peptide R3P83]
  EC50: 0.08 nM

## CC[C@H](C)[C@H](NC(=O)[C@@H](NC(=O)[C@H](CC(N)=O)NC(=O)[C@H](CC(C)C)NC(=O)[C@H](Cc1ccc(O)cc1)NC(=O)[C@H](CCCCN)NC(=O)[C@H](CCCCN)NC(=O)[C@H](C)NC(=O)[C@H](C)NC(=O)[C@H](CC(C)C)NC(=O)[C@H](CCC(N)=O)NC(=O)[C@H](CCCCN)NC(=O)[C@H](CCCNC(=N)N)NC(=O)[C@H](CC(C)C)NC(=O)[C@H](CCCNC(=N)N)NC(=O)[C@@H](NC(=O)[C@H](Cc1ccc(O)cc1)NC(=O)[C@H](CCC(N)=O)NC(=O)[C@H](CC(=O)O)NC(=O)[C@@H](NC(=O)[C@H](Cc1ccccc1)NC(=O)[C@@H](NC(=O)[C@H](C)NC(=O)[C@H](CC(=O)O)NC(=O)[C@H](CO)NC(=O)[C@@H](N)Cc1c[nH]cn1)C(C)C)[C@@H](C)O)[C@@H](C)O)[C@@H](C)O)C(=O)N[C@@H](CCCCN)C(=O)N[C@@H](CC(N)=O)C(=O)N[C@@H](CCCCN)C(=O)N[C@@H](CCCNC(=N)N)C(=O)N[C@@H](Cc1ccc(O)cc1)C(=O)O [Peptide R3P72]
  EC50: 0.16 nM

## HKDGIFTDSYSRYRKQMAVKKYLAAVL-NH2 [PAC2]
  EC50: 34 nM

## H-HSDAVFTDNYTRLRKQMAAKKYLNSIGNKR-OH [Peptide R3P121]
  EC50: 1 nM
  R3 Selectivity: 50

## H-HSDAVFTDNYTRLRKQMAGKKYLNSIQNRI-OH [rR3P185]
  EC50: 4.5 nM
  R3 Selectivity: 40

## Ac-HSDAVFTENYTKLRKQLAAKKYLNDLKKGGT [Peptide R3P2]
  EC50: 3 nM
